This is an account of results in US20250032651A1, “[177LU] LUTETIUM-PSMA I&T COMPOSITION AND DOSIMETRY, KIT, METHOD OF MAKING, AND METHOD OF USING THEREOF” (Curium US LLC, priority 2022, published 2025).

The nature of the data set: Batch release QC / patient dose batch data. Type of data set: physicochemical. The settings on record: patient dose batches. How it is done: In another embodiment, the radioactivity is measured in a dose calibrator. The radioactive amount of [^177Lu]Lu-PSMA I&T is determined when the dose is dispensed.
In one embodiment, bacterial endotoxin content is determined for each batch before release using a PTS-tester (Ph Eur method D) and sterility is determined according to Ph Eur.
The specifications listed were used as release parameters except for sterility testing. Sterility was tested on all batches post-release.

Where “and” joins values, the source holds several entries; their conditions need not be identical. Equal values may be shown once.

For the compound `O=C([O-])CC[C@H](NC(=O)N[C@@H](CCCCNC(=O)CCCCCCC(=O)NCCCC[C@@H](NC(=O)[C@@H](Cc1ccccc1)NC(=O)[C@@H](Cc1ccc(O)c(I)c1)NC(=O)CC[C@H](C(=O)[O-])N1CCN(CC(=O)[O-])CCN(CC(=O)[O-])CCN(CC(=O)[O-])CC1)C(=O)[O-])C(=O)[O-])C(=O)[O-].[177Lu+3].[H+].[H+].[H+].[H+].[H+]` [Lu-177 PSMA I&T], the “Measured PSMA Sum” value is 5.0 µg/mL; the “Theoretical PSMA Sum” value was 5.9 µg/mL and 6.4 µg/mL.
